Test results published in PMC6196238, “Novobiocin, a Newly Found TRPV1 Inhibitor, Attenuates the Expression of TRPV1 in Rat Intestine and Intestinal Epithelial Cell Line IEC-6” (Frontiers in Pharmacology, 2018).

Legend:
[1] = in vivo; details: SD, rat, po, 10 mg
Protocol: Blood samples were collected into heparinized tubes before and at 30, 60, 120, 180, 210, 240, 270, 330, 390, and 720 min after administration. Blood samples were immediately centrifuged at 4000 g (4°C) for 10 min to obtain plasma. The plasma samples were stored at -80°C until LC-MS/MS analysis.
The plasma samples and protein sample with 100 μL were extracted with 400 μL of methanol involving IS (verapamil 50 ng⋅mL^-1) by vortex-mix for 1 min, ultrasonic extraction for 1 h, and then centrifugation for 30 min at 15000 g. The supernatant was transferred into a borosilicate glass and 2 μL was subjected to LC-MS/MS analysis.
The LC-MS/MS system consisted of Agilent 6460 Triple Quadrupole LC/MS systems via an ESI interface. The samples were separated on an Agilent ZORBAX SB-C18 column (3.5 μm, 2.1 mm × 150 mm) and the column temperature was maintained at 30°C. The mobile phase consisted of acetonitrile and water contains 0.1% formic acid (70:30, v/v). The flow rate was 0.2 mL⋅min^-1. The ion source was an electrospray ionization interface in the positive mode. […] Other parameters were as follows: spray voltage, 4.0 kV; capillary temperature, 350°C; gas flow, 10 L⋅min^-1.

[2] = test system: IEC-6/TRPV1- cells; assay: LDH release assay (cell membrane integrity)
Protocol: (§4) The transfected cells were plated in 12-well plates. […] The cells were centrifuged at 1000 g for 5 min. Next, 50 μL of supernatants were aspirated and the rest of supernatants were discarded. The cells were washed twice with deionized water and then lysed by ultrasonic wave cracker. And then cell lysate and supernatants were analyzed by using LDH Release Assay Kit, according to the manufacturer’s instructions.

[3] = test system: IEC-6/TRPV1+ cells; assay: LDH release assay (cell membrane integrity); details: for LDH release: IEC-6/TRPV1+; for LDH release compared with the control: NOVO 2.5, 5, 10 μM, CAP 25 μM, RR 10 μM, SB-705498 0.1 μM, 12 and 24 h
Protocol: as §4

[4] = test system: IEC-6/TRPV1+ cells; assay: MTT cell viability assay; details: for Cell Survival: IEC-6/TRPV1+
Protocol: (§1) The rat intestinal epithelial cell line IEC-6, purchased from Kunming Institute of Zoology. CAS, was cultured in Dulbecco’s Modified Eagle’s Medium (DMEM) (Gibco, Grand Island, NY, United States) supplemented with 10% fetal bovine serum (FBS; Gibco) at 37°C in a humidified atmosphere of 5% CO2.
(§2) The plasmid pENTER containing the TRPV1 coding sequence NM_080704 was used as template in a PCR with the following primers: 5′-[…]-3′ (forward) and 5′-[…] (reverse). And synthetic small interfering RNA (siRNA) specific for rat TRPV1 (TRPV1-siRNA) was purchased from Vigene Bioscience (Rockville, MD, United States) with the following sequences: 5′-[…]-3′ (forward) and 5′-[…]-3′ (reverse) for TRPV1-siRNA. The transfecting process was conducted by using the lipofectamin® 3000 transfection reagent (Invitrogen^TM, Carlsbad, CA, United States), according to the manufacturer’s protocol.
(§3) The transfected cells were plated in 96-well plates. […] Optical density at 490 nm was used to evaluate cell viability in 96-well plates.

[5] = test system: IEC-6/TRPV1- cells; assay: MTT cell viability assay
Protocol: as §1, §2, §3

[6] = test system: rat intestine (jejunum, ileum, colon); assay: Ussing chamber intestinal permeability of NOVO; format: in vitro ADME; details: NOVO in combination with 10 μM RR; Figure 1
Protocol: The intestinal permeability of CAP in vitro was performed using Ussing chamber. […] NOVO was also prepared in HEPES buffer to yield final concentration at 5, 10, 25, 50, 100, and 200 μM. Animal intestinal segments for the permeability study were prepared in accordance with the experimental method as described previously ([Yodoya et al., 1994]; [Wallon et al., 2005]; [Duan et al., 2013]). Briefly, male SD rats, weighting 240–260 g, were fasted for 18 h before each experiment and anesthetized by injecting 10 % chloral hydrate anesthesia (i.p.). Different portions of the rat intestine were excised and flushed with HEPES buffer, including jejunum (after the first 5 cm of the top of small intestine), ileum (the distal part of small intestine) and colon (proximal to cecal-colonic junction), and incubated in the ice-cold HEPES buffer. Next, 3–4 cm of the intestine was clipped, and the serosa was removed rapidly on an ice-cold glass. The intestinal segments were fixed in the Ussing chamber. Finally, 7 mL of HEPES buffer was added to the receiving side while an equal volume of drug solution to the dosing side. All the chambers were maintained at 37°C by using a warm water-circulating pump and a mixture of 95% O2 and 5% CO2 aerated to ensure the activity of the membrane. […]

[7] = test system: IEC-6/TRPV1- cells; assay: CAP accumulation assay; format: cell-based, rat; details: 2.5-10 μM NOVO, 10 μM RR, 0.1 μM SB-705498, Figure 3D
Protocol: The transfected cells were grown to 80% confluence in 12-well plates. The experiment was divided into three parts: […] SB-705498, RR or NOVO was then added to the medium for another 15, 30, and 60 min. […] After incubation, the medium was removed, and cell layers were washed three times with ice-cold PBS and then extracted with Membrane Protein Extraction Kit (Thermo Fisher Scientific Inc, Rockford, IL, United States), according to the manufacturer’s protocol. The cytosolic protein extracts were stored at -80°C until LC-MS/MS analysis. The plasma samples and protein sample with 100 μL were extracted with 400 μL of methanol involving IS (verapamil 50 ng⋅mL^-1) by vortex-mix for 1 min, ultrasonic extraction for 1 h, and then centrifugation for 30 min at 15000 g. The supernatant was transferred into a borosilicate glass and 2 μL was subjected to LC-MS/MS analysis. The LC-MS/MS system consisted of Agilent 6460 Triple Quadrupole LC/MS systems via an ESI interface. The samples were separated on an Agilent ZORBAX SB-C18 column (3.5 μm, 2.1 mm × 150 mm) and the column temperature was maintained at 30°C. The mobile phase consisted of acetonitrile and water contains 0.1% formic acid (70:30, v/v). The flow rate was 0.2 mL⋅min^-1. The ion source was an electrospray ionization interface in the positive mode. […] Other parameters were as follows: spray voltage, 4.0 kV; capillary temperature, 350°C; gas flow, 10 L⋅min^-1.

[8] = test system: rat intestine (jejunum, ileum, colon); assay: Ussing chamber intestinal permeability of CAP; format: in vitro ADME; details: CAP + 10 μM inhibitor; for fold-inhibition factor of CAP Papp: vs CAP only
Protocol: NOVO was also prepared in HEPES buffer to yield final concentration at 5, 10, 25, 50, 100, and 200 μM. […] Different portions of the rat intestine were excised and flushed with HEPES buffer, including jejunum (after the first 5 cm of the top of small intestine), ileum (the distal part of small intestine) and colon (proximal to cecal-colonic junction), and incubated in the ice-cold HEPES buffer. Next, 3–4 cm of the intestine was clipped, and the serosa was removed rapidly on an ice-cold glass. The intestinal segments were fixed in the Ussing chamber. Finally, 7 mL of HEPES buffer was added to the receiving side while an equal volume of drug solution to the dosing side. […] All the samples were kept at -20°C till HPLC analysis.
In brief, samples were injected into a C18 column (3.5 μm, 2.1 mm × 100 mm). An aliquot of 20 μL of sample solutions were injected.

SMILES: COc1cc(CNC(=O)CCCC/C=C/C(C)C)ccc1O [CAP, capsaicin]
- AUC(0-t) [1]: 230 ng·h/mL
- Cmax [1]: 52.2 ± 8.92 ng/mL
- Tmax ([1]; Tmax of CAP): 3.9 h
- Tmax ([1]; peak time (Tmax) of CAP): ~4 h
- LDH release ([2]; 25 μM, 12 h): 0.680 ± 0.205 gprot⋅mL ^-1
- LDH release ([2]; 25 μM, 24 h): 0.462 ± 0.101 gprot⋅mL ^-1
- LDH release ([3]; 25 μM, 12 h): 0.380 ± 0.165 gprot⋅mL ^-1
- LDH release ([3]; 25 μM, 24 h): 0.311 ± 0.051 gprot⋅mL ^-1
- LDH release compared with the control [3]: not any significant difference
- Cell Survival ([4]; 12.5 μM, incubation 12 h): 1.029 ± 0.180
- Cell Survival ([4]; 12.5 μM, incubation 24 h): 0.916 ± 0.163
- Cell Survival ([4]; 25 μM, incubation 12 h): 0.896 ± 0.199
- Cell Survival ([4]; 25 μM, incubation 24 h): 0.822 ± 0.102
- Cell Survival ([4]; 50 μM, incubation 12 h): 0.820 ± 0.201
- Cell Survival ([4]; 50 μM, incubation 24 h): 0.739 ± 0.012
- concentration up to which more than 80% of the cells were viable ([4]; both IEC-6/TRPV1+ and IEC-6/TRPV1-, incubated 24 h): 25 µM
- Cell Survival ([5]; 12.5 μM, incubation 12 h): 0.969 ± 0.310
- Cell Survival ([5]; 12.5 μM, incubation 24 h): 0.934 ± 0.111
- Cell Survival ([5]; 25 μM, incubation 12 h): 0.851 ± 0.216
- Cell Survival ([5]; 25 μM, incubation 24 h): 0.878 ± 0.096
- Cell Survival ([5]; 50 μM, incubation 12 h): 0.792 ± 0.316
- Cell Survival ([5]; 50 μM, incubation 24 h): 0.801 ± 0.171

SMILES: N.N.N.N.N.N.N.N.N.N.N.N.N.N.[Cl-].[Cl-].[Cl-].[Cl-].[Cl-].[Cl-].[O-2].[O-2].[Ru+3].[Ru+3].[Ru+4] [RR, ruthenium red]
- effect on permeability of NOVO across intestinal segments [6]: no change
- accumulation of CAP, co-incubation [7]: did not change
- LDH release ([2]; 10 μM, 12 h): 0.552 ± 0.039 gprot⋅mL ^-1
- LDH release ([2]; 10 μM, 24 h): 0.501 ± 0.094 gprot⋅mL ^-1
- LDH release ([3]; 10 μM, 12 h): 0.406 ± 0.056 gprot⋅mL ^-1
- LDH release ([3]; 10 μM, 24 h): 0.301 ± 0.061 gprot⋅mL ^-1
- LDH release compared with the control [3]: not any significant difference
- Papp of CAP ([8]; colon): 12.18 ± 2.90 ×10^-6, cm⋅s^-1
- fold-inhibition factor of CAP Papp ([8]; colon): 1.64 fold
- Papp of CAP ([8]; ileum): 5.06 ± 0.57 ×10^-6, cm⋅s^-1
- fold-inhibition factor of CAP Papp ([8]; ileum): 1.46 fold
- Papp of CAP ([8]; jejunum): 2.54 ± 0.40 ×10^-6, cm⋅s^-1
- fold-inhibition factor of CAP Papp ([8]; jejunum): 1.23 fold
